The values that follow come from US7192962B2, “Xanthine phosphodiesterase V inhibitor polymorphs” (Schering Corporation, priority 2002, dated 2007).

As usually defined, the IC50 is the concentration that inhibits the measured activity by half. As a reminder, the solubility is how much of the substance goes into solution per volume. The low end stands for little dissolved substance, the high end for much dissolved substance.

Data set [1] can be described thus: Water solubility of the polymorphs. Format: physicochemical.
Data set [2] in a line: Thermodynamic stability of the polymorphs. Format: physicochemical. To be noted: at process temperatures. As for the experimental part:
The two polymorphs also further differ in their water solubilities (Form 1: about 50 μg/mL vs. Form 2: about 30 μg/mL). […] Form 1 can equilibrate to Form 2 when slurried in one of the Form 2 crystallizing solvents (e.g., alcohol, nitrile, ester, etc.). For example, when a mixture of Form 1 of Compound 13 and Form 2 of Compound 13 is suspended in an organic crystallizing solvent (e.g., ethyl acetate, isopropanol, acetonitrile, and the like), and stored for an extended period of time (e.g., greater than or equal to about 10 hours), the Form 1 component of the mixture will convert to Form 2 of Compound 13.

Another data set deals with PDE V isoenzyme (Homo sapiens, UniProt O76074). In words: PDE V isoenzyme inhibition. Format: biochemical. To be noted: concentration required to provide 50% inhibition of PDE V isoenzyme. The source says: Forms 1 and 2 of Compound 13 are each useful for inhibiting PDE V isoenzymes. Their isoenzyme activities (potencies) and isoenzyme selectivities can be measured by the PDE V IC50 value, which is the concentration (in nM) of compound required to provide 50% inhibition of PDE V isoenzyme. […] Similarly, an IC50 value may be obtained for other PDE isoenzymes, such as the PDE VI isoenzyme. Isoenzyme selectivity in this respect may be defined as the activity of a PDE inhibitor compound for a particular PDE isoenzyme as opposed to another PDE isoenzyme, for example, the activity of a compound to inhibit a PDE V isoenzyme compared to the activity of the same compound to inhibit a PDE VI isoenzyme.

Molecules are shown by their SMILES. Converted amounts (≈) assume the structure as drawn.

Take `CCn1c(=O)c2c(nc(N[C@@H]3CCC[C@H]3O)n2Cc2ccc(OC)c(Br)c2)n(CCO)c1=O` [Form 2 of Compound 13, 1-ethyl-3,7-dihydro-8-[(1R,2R) -(hydroxycyclopentyl)amino]-3-(2-hydroxyethyl)-7-[(3-bromo-4-methoxyphenyl)methyl]-1H-Purine-2,6-dione]: the water solubility result in data set [1] was “about 30 μg/mL”. The thermodynamic stability result in data set [2] is “more thermodynamically stable than Form 1 of Compound 13”.

As for `CCn1c(=O)c2c(nc(N[C@@H]3CCC[C@H]3O)n2Cc2ccc(OC)c(Br)c2)n(CCO)c1=O` [Form 1 of Compound 13, 1-ethyl-3,7-dihydro-8-[(1R,2R) -(hydroxycyclopentyl)amino]-3-(2-hydroxyethyl)-7-[(3-bromo-4-methoxyphenyl)methyl]-1H-Purine-2,6-dione], the IC50 on PDE V isoenzyme lay in the range of 2 to 3 nM. In data set [1], this compound had a solubility of about 0.05 mg/mL (≈ 95.7 µM).
